Test results reported in US20230158084A1, “PROBIOTICS, METABOLITES, AND USES THEREOF” (California Institute of Technology, priority 2018, published 2023).
“Also recorded” adds a separate entry of the source.

Legend:
Format in all cases: in vivo, mouse
BTBR mice [1] = assay: Marble burying (MB), BTBR mice given metabolites; details: BTBR offspring; 10 mM in drinking water before mating and throughout lifetime (prenatal administration); vs untreated vehicle controls
Protocol: FIGS. 5A-D are a series of drawings illustrating that differential metabolites impact ASD-relevant behaviors in SPF mice in accordance with some embodiments herein. FIG. 5A: The abundance of select metabolites in the offspring microbiome is correlated with behavior of male offspring. Spearman correlation between the microbiome and mouse behavior, by donor (See FIGS. 1A-0). […] Color scale denotes Spearman ρ. […] Groups of mice were orally administered 10 mM Taurine or 5AV in drinking water before mating, and throughout their lifetime. Offspring were tested by marble burying, direct social interaction, and open field tests, and compared to untreated vehicle controls. Results are aggregated from 2 independent experiments. NControl=42, […]=52, NTaurine=36. Bar plots denote mean and S.E.M. Hypothesis on differences in means were tested by ANOVA on trimmed means (10%) and subsequent posthoc tests. FIGS. 5E-L: qPCR of BTBR brains after 5AV and taurine administration. Results are aggregated from 2 independent experiments. Hypothesis on differences in means were tested by ANOVA on trimmed means (10%) and subsequent posthoc tests. […] The number of buried marbles (50% or more covered) was then recorded and photographed for reference. […] As such, it will be appreciated that at a given stage of development, some molecules may readily pass through the blood brain barrier, while others may not.

BTBR mice [2] = assay: Open field testing (OFT), BTBR mice given metabolites; details: BTBR offspring; 10 mM in drinking water before mating and throughout lifetime (prenatal administration); vs untreated vehicle controls
Protocol: FIGS. 5A-D are a series of drawings illustrating that differential metabolites impact ASD-relevant behaviors in SPF mice in accordance with some embodiments herein. FIG. 5A: The abundance of select metabolites in the offspring microbiome is correlated with behavior of male offspring. Spearman correlation between the microbiome and mouse behavior, by donor (See FIGS. 1A-0). […] Color scale denotes Spearman ρ. […] Groups of mice were orally administered 10 mM Taurine or 5AV in drinking water before mating, and throughout their lifetime. Offspring were tested by marble burying, direct social interaction, and open field tests, and compared to untreated vehicle controls. Results are aggregated from 2 independent experiments. NControl=42, […]=52, NTaurine=36. […] Open field testing (OFT)-OFT, as a measure for locomotion and anxiety, was performed in 50×50 cm^2 white plexiglas arenas, recorded using an overhead camera, and tracked and analyzed using the EthoVision XT 10 software package (Noldus Information Technology). […] The distance traveled, as well as the number of entries and time spend in a 30×30 cm^2 center square, were analyzed by the EthoVision software. […] As such, it will be appreciated that at a given stage of development, some molecules may readily pass through the blood brain barrier, while others may not.

BTBR mice [3] = assay: ASD-related behaviors overall (marble burying, direct social interaction, open field) in BTBR mice; details: for ASD-related behaviors, administration post weaning: BTBR mice, 10 mM in drinking water to juvenile mice starting 3-4 weeks of age through adulthood; for ASD-related behaviors / symptoms, prenatal administration: BTBR mouse model, 10 mM orally in drinking water from before mating (conception) through adulthood
Protocol: FIGS. 5A-D are a series of drawings illustrating that differential metabolites impact ASD-relevant behaviors in SPF mice in accordance with some embodiments herein. FIG. 5A: The abundance of select metabolites in the offspring microbiome is correlated with behavior of male offspring. Spearman correlation between the microbiome and mouse behavior, by donor (See FIGS. 1A-0). […] Color scale denotes Spearman ρ. […] Groups of mice were orally administered 10 mM Taurine or 5AV in drinking water before mating, and throughout their lifetime. Offspring were tested by marble burying, direct social interaction, and open field tests, and compared to untreated vehicle controls. Results are aggregated from 2 independent experiments. NControl=42, […]=52, NTaurine=36. Bar plots denote mean and S.E.M. Hypothesis on differences in means were tested by ANOVA on trimmed means (10%) and subsequent posthoc tests. FIGS. 5E-L: qPCR of BTBR brains after 5AV and taurine administration. Results are aggregated from 2 independent experiments. Hypothesis on differences in means were tested by ANOVA on trimmed means (10%) and subsequent posthoc tests. FIGS. 5M-V: series of graphs illustrating E18 B6 feeding 5AV and Taurine targeted metabolomics. […] In FIGS. 9A-K, mice were orally administered 10 mM Taurine or 5AV in drinking water starting 3-4 weeks of age mating, and throughout their lifetime. Offspring were tested by marble burying, direct social interaction, and open field tests, and compared to untreated vehicle controls. Results are aggregated from 2 independent experiments. NControl=20, […]=18, NTaurine=20. Bar plots denote mean and S.E.M. hypothesis on differences means were tested by ANOVA on trimmed means (10%) and subsequent posthoc tests. FIGS. 9L-Q illustrate basal properties of L5 pyramidal neurons in the mPFC. […] Taurine was orally administered to BTBR mice, a validated mouse model for ASD (McFarlane et al., 2008), from conception through adulthood to capture both prenatal and postnatal neurodevelopmental periods. […] It is will appreciated that the blood-brain barrier comprises endothelial cells, and selectively permits the movement of substances between circulating blood and the brain, for example permitting some molecules to pass from the blood to the brain, while preventing other molecules from passing from the blood to the brain. As such, it will be appreciated that at a given stage of development, some molecules may readily pass through the blood brain barrier, while others may not.

NCCS(=O)(=O)O [taurine]
repetitive behavior, as measured by marble burying (BTBR mice [1]): significantly reduces repetitive behavior in male mice
anxiety, as measured by center duration in the OFT (BTBR mice [2]): reduces anxiety
ASD-related behaviors, administration post weaning (BTBR mice [3]): did not rescue behavioral alterations; also recorded: did not have these effects
ASD-related behaviors, administration post weaning (BTBR mice [3]; listed as Taurine): no effects on ASD-related behaviors
ASD-related behaviors / symptoms, prenatal administration (BTBR mice [3]): significant improvement in ASD-related behaviors; also recorded: reduces and/or prevents symptoms of ASD
ASD-related behaviors / symptoms, prenatal administration (BTBR mice [3]; listed as Taurine): ameliorate ASD-related behavioral deficits

NCCCCC(=O)O [5AV, 5-Aminovaleric acid]
repetitive behavior, as measured by marble burying (BTBR mice [1]): reduced repetitive behavior
ASD-related behaviors, administration post weaning (BTBR mice [3]): did not rescue behavioral alterations; also recorded: no effects on ASD-related behaviors; also recorded: did not have these effects
ASD-related behaviors / symptoms, prenatal administration (BTBR mice [3]): significant improvement in ASD-related behaviors; also recorded: ameliorate ASD-related behavioral deficits; also recorded: reduces and/or prevents symptoms of ASD
